Data published in article PMC6985109, “Cellular apoptosis and necrosis as therapeutic targets for novel Eugenol Tosylate Congeners against Candida albicans” (Scientific Reports, 2020).
Values after ≈ are worked out from the molar mass of the structure shown. Read-outs that look alike come from different tables or passages of the source.

Tests used:
[1] = test system: Candida albicans 4576; experiment: Broth microdilution antifungal susceptibility (MIC/MFC); assay type: cell-based; details: strain 4576, FLC susceptible; for MIC: 37 °C, 24 h
Protocol: (§1) In this study, 10 clinical Candida albicans isolates, comprising of 5 fluconazole susceptible and 5 fluconazole resistant, were used. C. albicans SC5314 was also used as a control laboratory strain. Clinical strains used in this study were stored at −80 °C supplemented with 20% glycerol in the Department of Clinical Microbiology and Infectious Diseases, University of the Witwatersrand, Johannesburg and were previously collected under the ethical clearance number M000402, obtained from the Human Research Ethics Committee, University of the Witwatersrand. For experimental purpose each strain from glycerol stock was recovered on Sabouraud Dextrose (SDA) agar plates at 37 °C for 24 h.
(§2) Minimum Inhibitory Concentration (MIC) and Minimum Fungicidal Concentrations (MFC) of all newly synthesized eugenol-tosylate congeners (ETC-1–ETC-7) against C. albicans strains were determined by broth microdilution assay in accordance with the approved guidelines described by Clinical and Laboratory Standards Institute (CLSI) guidelines M27-A[38]. The test compounds were prepared in 1% DMSO to a stock concentration of 8192 µg/ml. Two-fold dilutions of test compounds (100 µL) were prepared in 96-well flat-bottom microtiter plates, inoculated with 100 µl of inoculum (1 × 10^6 cells/mL) and incubated at 37 °C for 24 hours. In every set of experiment, positive control (fluconazole), negative vehicle control (1% DMSO) and culture control (media and cells only) were included. MIC’s were determined visibly as the lowest concentration of the test compounds that inhibited growth of test organism. To determine MFC, each well without visible growth was sub-cultured onto agar plates. Concentration in the first well with no growth on plate was taken as MFC. […] The experiment was performed in triplicate to validate the results.

[2] = test system: Candida albicans 4122; experiment: as above; assay type: cell-based; details: strain 4122, FLC resistant; for MIC: 37 °C, 24 h
Protocol: as §1, §2

[3] = test system: Candida albicans 4324; experiment: as above; assay type: cell-based; details: strain 4324, FLC resistant; for MIC: 37 °C, 24 h
Protocol: as §1, §2

[4] = test system: Candida albicans 5112; experiment: as above; assay type: cell-based; details: strain 5112, FLC resistant; for MIC: 37 °C, 24 h
Protocol: as §1, §2

[5] = test system: Candida albicans 4175; experiment: as above; assay type: cell-based
Protocol: as §1, §2

[6] = test system: Candida albicans 4563; experiment: as above; assay type: cell-based; details: strain 4563, FLC susceptible; for MIC: 37 °C, 24 h
Protocol: as §1, §2

[7] = test system: Candida albicans SC5314; experiment: as above; assay type: cell-based; details: SC5314, FLC susceptible; for MIC: 37 °C, 24 h
Protocol: as §1, §2

[8] = test system: Candida albicans 4106; experiment: as above; assay type: cell-based; details: strain 4106, FLC resistant; for MIC: 37 °C, 24 h
Protocol: as §1, §2

[9] = test system: Candida albicans 4135; experiment: as above; assay type: cell-based; details: strain 4135, FLC resistant; for MIC: 37 °C, 24 h
Protocol: as §1, §2

[10] = test system: Candida albicans 4179; experiment: as above; assay type: cell-based; details: strain 4179, FLC susceptible; for MIC: 37 °C, 24 h
Protocol: as §1, §2

[11] = test system: Candida albicans 4180; experiment: as above; assay type: cell-based; details: strain 4180, FLC susceptible; for MIC: 37 °C, 24 h
Protocol: as §1, §2

[12] = test system: C. albicans 4175, C. albicans 5112 and C. albicans SC5314; experiment: TUNEL assay for DNA damage; assay type: cell-based, Candida albicans; details: 250 μmol/L, positive control
Protocol: To study the effect of test compounds on apoptotic markers protoplasts were prepared as described previously, with modifications. Briefly, mid-exponential phase cells were harvested and exposed to various concentrations of test compounds (0.5 × MIC, 1 × MIC and 2×MIC) for 3 h. The cells were then washed twice with protoplast buffer- I (1 M sorbitol, 50 mM tris base, 10 mM MgCl2 and 30 mM DTT) and incubated in the same buffer for 15 minutes at 25 °C, followed by centrifugation at 1500 rpm for 5 minutes. Supernatant was removed and cells were incubated with buffer- II (1 M sorbitol, 50 mM tris base, 10 mM MgCl2 and 1 mM DTT) supplemented with lyticase enzyme (≥1 µg/mL) used to digest the cell wall for 1 h at 25 °C. Buffer- II were removed by centrifugation and then cells were incubated with buffer- III (1 M sorbitol, 50 mM tris base and 10 mM MgCl2) for 20 minutes at room temperature. After the incubation cells were again centrifuged at 1500 rpm for 5 minutes and supernatant was discarded. […]
TUNEL assay was used to detect the DNA damage, a hallmark for late stages of apoptosis. […] Slides were examined by fluorescence microscopy using Zeiss Laser Scanning Confocal Microscope (LSM) 780 (Carl Zeiss Microscopy, Jena, Germany) with an excitation wavelength of 495 nm and emission wavelength of 519 nm. […] Images were further analyzed by using software ImageJ.

[13] = test system: C. albicans 4175, C. albicans 5112 and C. albicans SC5314; experiment: FITC annexin V/PI staining flow cytometry, ranges over three strains; assay type: cell-based, Candida albicans; details: 250 μmol/L, positive control
Protocol: To study the effect of test compounds on apoptotic markers protoplasts were prepared as described previously, with modifications. Briefly, mid-exponential phase cells were harvested and exposed to various concentrations of test compounds (0.5 × MIC, 1 × MIC and 2×MIC) for 3 h. The cells were then washed twice with protoplast buffer- I (1 M sorbitol, 50 mM tris base, 10 mM MgCl2 and 30 mM DTT) and incubated in the same buffer for 15 minutes at 25 °C, followed by centrifugation at 1500 rpm for 5 minutes. Supernatant was removed and cells were incubated with buffer- II (1 M sorbitol, 50 mM tris base, 10 mM MgCl2 and 1 mM DTT) supplemented with lyticase enzyme (≥1 µg/mL) used to digest the cell wall for 1 h at 25 °C. Buffer- II were removed by centrifugation and then cells were incubated with buffer- III (1 M sorbitol, 50 mM tris base and 10 mM MgCl2) for 20 minutes at room temperature. After the incubation cells were again centrifuged at 1500 rpm for 5 minutes and supernatant was discarded. Protoplasts then finally washed once with PBS and re-suspended in the same for further use. In each washing steps the volume of these protoplast buffers were 5 times to cell volume with pH 7.4.
This assay was used to identify early apoptosis by detecting movement of phosphatidylserine (PS) from the inner to the outer leaflet of plasma membrane. FITC annexin V Apoptosis Detection Kit I (BD Biosciences, CA, USA) was used according to the manufacturer’s instructions. Protoplasts of C. albicans cells treated with different concentrations of the test compounds, as mentioned in above section, were resuspended in 1X annexin V binding buffer ([…]) at a concentration of 1 × 10^6 cells per ml. To the 100 µl of this solution, 5 µl each of FITC annexin V and propidium iodide (PI) was added. Tubes were gently vortexed and incubated for 15 minutes at 25 °C in the dark. After incubation, 400 µl of 1X annexin V binding buffer was added to each tube and analyzed using the BD LSRFortessa Flow cytometer (Becton Dickinson, NJ, USA). The cell populations in four different quadrants of a quadrant dot plot were analyzed and interpreted as; Q1: necrosis (annexin V^−/PI^+), Q2: late apoptosis (annexin V^+/PI^+), Q3: early apoptosis (annexin V^+/PI^−) and Q4: viable cells (annexin V^−/PI^−), by using software FlowJo_V10.

[14] = test system: fluconazole susceptible and resistant C. albicans strains; experiment: Broth microdilution antifungal susceptibility, ranges over strains; assay type: cell-based; details: Candida albicans
Protocol: as §1, §2

[15] = test system: horse red blood cells; experiment: Cytotoxicity by haemolytic assay; assay type: cell-based
Protocol: The cytotoxicity of the test compounds was determined on horse red blood cells (NHLS, Johannesburg, South Africa) by testing the haemolytic activity of these compounds using the method described previously, with some modifications. Briefly, in a sterile 15 ml falcon tube 5 ml of horse blood was centrifuged at 2000 × rpm for 10 minutes. The supernatant was discarded, and the cell pellet was washed three times with chilled PBS solution. The final pellet was used to yield a 10% RBC suspension with chilled PBS. The 10% suspension were further diluted to 1:10 in PBS, then 100 µl of this suspension was added to different concentration of test compounds (0.5 × MIC, 1 × MIC and 2 × MIC) in 1.5 ml tubes. The tubes were then incubated for 60 minutes at 37 °C followed by centrifugation at 2000 × rpm for 10 minutes. From each tube, 200 µl of the supernatant was transferred to a flat-bottomed 96-well microtiter plate and absorbance was monitored at 450 nm spectrophotometrically with an iMark microplate reader (Bio-Rad laboratories, CA, USA). Triton X-100 (1%) and PBS were used as positive and negative controls respectively. The percentage of haemolysis was calculated by the following equation: %haemolysis=A450oftestcompoundtreatedsample−A450ofbuffertreatedsample/A450of1%TritonX−100treatedsample−A450ofbuffertreatedsample×100%

[16] = Candida albicans, strain 4175, FLC susceptible
[17] = Candida albicans, strain 4175, FLC susceptible, 37 °C, 24 h, read-out: MIC
[18] = over the tested C. albicans strains

Compound | MFC [1] [µg/mL] | MIC [1] [µg/mL] | MFC [2] [µg/mL] | MIC [2] [µg/mL] | MFC [3] [µg/mL] | MIC [3] [µg/mL] | MFC [4] [µg/mL] | MIC [4] [µg/mL] | MFC [5, 16] [µg/mL] | MIC [5, 17] [µg/mL] | MFC [6] [µg/mL] | MIC [6] [µg/mL] | MFC [7] [µg/mL] | MIC [7] [µg/mL] | MFC [8] [µg/mL] | MIC [8] [µg/mL] | MFC [9] [µg/mL] | MIC [9] [µg/mL] | MIC [10] [µg/mL] | MIC [11] [µg/mL] | further results
C=CCc1ccc(OS(=O)(=O)c2ccccc2)c(OC)c1 [ETC-2, 2-methoxy-4-(prop-2-en-1-yl)-phenylbenzenesulfonate] | 256 (≈ 841 µM) | 128 (≈ 421 µM) | 512 (≈ 1680 µM) | 256 (≈ 841 µM) | 256 (≈ 841 µM) | 128 (≈ 421 µM) | 512 (≈ 1680 µM) | 256 (≈ 841 µM) | 64 (≈ 210 µM) | 32 (≈ 105 µM) | 512 (≈ 1680 µM) | 256 (≈ 841 µM) | 64 (≈ 210 µM) | 32 (≈ 105 µM) | 256 (≈ 841 µM) | 64 (≈ 210 µM) | 512 (≈ 1680 µM) | 128 (≈ 421 µM) | 128 (≈ 421 µM) | 64 (≈ 210 µM) | MFC [10]: 256 µg/mL (≈ 841 µM); MFC [11]: 256 µg/mL (≈ 841 µM)
OO [H2O2, reference compound] | – | – | – | – | – | – | – | – | – | – | – | – | – | – | – | – | – | – | – | – | TUNEL green fluorescence (late apoptotic cells) [12]: increased green fluorescence; early apoptosis [13]: 32–33%; late apoptosis [13]: 50–51%; necrosis [13]: 6–7%
OC(Cn1cncn1)(Cn1cncn1)c1ccc(F)cc1F [FLC, fluconazole, reference compound] | – | 0.25 (≈ 0.816 µM) | – | 32 (≈ 104 µM) | – | 16 (≈ 52.2 µM) | – | 64 (≈ 209 µM) | – | – | – | 0.25 (≈ 0.816 µM) | – | 0.25 (≈ 0.816 µM) | – | 8 (≈ 26.1 µM) | – | 32 (≈ 104 µM) | 0.25 (≈ 0.816 µM) | 0.25 (≈ 0.816 µM) | MIC ([5]; Candida albicans, 4175, 24 h): 0.125 µg/mL (≈ 0.408 µM); MIC ([14]; fluconazole resistant strains, range): 8 to 64 µg/mL (≈ 26.1 to 209 µM); MIC ([14]; fluconazole susceptible strains, range): 0.125 to 0.25 µg/mL (≈ 0.408 to 0.816 µM)
C=CCc1ccc(O)c(OC)c1 [EUG, 2-methoxy-4-(prop-2-en-1-yl)phenol, reference compound] | 1000 (≈ 6090 µM) | 500 (≈ 3040 µM) | 1000 (≈ 6090 µM) | 500 (≈ 3040 µM) | 1000 (≈ 6090 µM) | 500 (≈ 3040 µM) | 1000 (≈ 6090 µM) | 500 (≈ 3040 µM) | 1000 (≈ 6090 µM) | 500 (≈ 3040 µM) | 1000 (≈ 6090 µM) | 500 (≈ 3040 µM) | 1000 (≈ 6090 µM) | 500 (≈ 3040 µM) | 1000 (≈ 6090 µM) | 500 (≈ 3040 µM) | 1000 (≈ 6090 µM) | 500 (≈ 3040 µM) | 500 (≈ 3040 µM) | 500 (≈ 3040 µM) | MFC [10]: 1000 µg/mL (≈ 6090 µM); MFC [11]: 1000 µg/mL (≈ 6090 µM); MFC [14, 18]: 1000 µg/mL (≈ 6090 µM); MIC [14, 18]: 500 µg/mL (≈ 3040 µM)
Triton X-100 [reference compound] | – | – | – | – | – | – | – | – | – | – | – | – | – | – | – | – | – | – | – | – | lysis [15]: 100%
